Where two headings read alike, the source gives them in different places.
What was measured:
Male ICR mice [1] = experiment: Tail suspension test; format: in vivo; details: for influence of flumazenil on antidepressant effect (immobility time): 2.0 mg/kg p.o. 45 minutes prior plus flumazenil 1.25 mg/kg i.p. 15 minutes prior; for oral dose that significantly shortens immobility time (antidepressant effect): 45 minutes prior to testing (imipramine 30 minutes), immobility scored from 2 to 6 min
Method: Tail suspension test. Male ICR mice 4 to 6 weeks of age were randomized into groups (n=12-20/group). Vehicle (0.9% NaCl), or one of oral l-THP, dl-THP and d-THP (0.1-5.0 mg/kg) was administered 45 minutes prior to testing; or 30 mg/kg oral imipramine was administered 30 minutes prior to testing. In the test, a mouse was taped to a bar by the tail and suspended 15 cm above ground for 6 minutes. The total time of immobility was scored manually from 2 to 6 min during the period of suspension. Decreased time of immobility is indicative of antidepressant effect (Stem et al, 1985). To test whether the antidepressant effect elicited by l-THP or dl-THP can be blocked by the benzodiazepine (BZ) binding site antagonist flumazenil, naïve male 4-6 week old mice were randomly separated into three groups (n=12-20/group). The first group received vehicle (p.o.) 45 minutes prior to test and flumazenil (1.25 mg/kg i.p) 15 minutes prior to test, the second group received l-THP (2.0 mg/kg, p.o) or dl-THP (2.0 mg/kg, p.o.) 45 minutes prior to test and vehicle (i.p) 15 minutes prior to test, and the third group received l-THP (2.0 mg/kg p.o) or dl-THP (2.0 mg/kg p.o) 45 minutes prior to test and flumazenil (1.25 mg/kg i.p) 15 minutes prior to experiment.

Male ICR mice [2] = experiment: Elevated plus-maze test; format: in vivo; details: for time spent in the open arms (anxiolytic effect): 45 minutes prior, 5-minute test; for anxiolysis (time spent in open arms): p<0.001
Method: Elevated plus-maze test. Naive male ICR mice 4 to 6 weeks of age were randomly separated into groups (n=15-20/group). Vehicle (0.9% NaCl), 0.01, 0.05, 0.1, 0.5, 1, 2 and 2.5 mg/kg dl-THP or l-THP, or 1 or 3 mg/kg diazepam was orally administered 45 minutes prior to experiment. The test apparatus consisted of four arms, 25 cm×5 cm each, extended from a center platform of 5 cm×5 cm in the shape of a plus sign. Two of the opposite arms were enclosed by 20 cm opaque high walls, making up the closed arms. The plus maze was elevated 40 cm off the ground. Each mouse was placed onto the center of the maze with head facing an open arm. The frequency and time spent in the open and closed arms were recorded for a period of 5 minutes. An arm entry was recorded when all four paws were inside the arm. Increased number of open-arm entries and percentage of time spent in them are indicative of an anxiolytic effect on the mice (Kalueff and Tuohimaa, 2004; Treit et al., 1993). In addition, the number of closed-arm entries provided an index of locomotor activity (Boguszewski and Zagrodzka, 2002). […] The first group received vehicle (p.o.) 45 minutes prior to test and flumazenil (1.25 mg/kg i.p) 15 minutes prior to test, the second group received l-THP (1.0 mg/kg, p.o) 45 minutes prior to test and vehicle (i.p) 15 minutes prior to test, and the third group received l-THP (1.0 mg/kg p.o) 45 minutes prior to test and flumazenil (1.25 mg/kg i.p) 15 minutes prior to test.

mice [3] = details: oral administration; cited from earlier work
Male ICR mice [4] = experiment: Locomotor activity side effect test (crossings of infrared beams); format: in vivo; details: 3 mg/kg, 45 minutes prior; p<0.05
Method: Manic-like behavior was induced accomplished using the method of Pathak et al. (2015). Male ICR mice of 6 to 7 week were given daily injection of 1.8 mg/kg d-amphetamine (amphetamine-sensitized mice) or vehicle (0.9% NaCl vehicle treated, viz. mice unsensitized by amphetamine) for 5 days. Amphetamine was then withdrawn for 7 days. The locomotor activity test ‘ZIL-2’ apparatus (Beijing Institute of Materia Medica) employed consisted of a transparent plastic cylinder of 20 cm diameter×12 cm height equipped with six evenly spaced sets of infrared beam-photocell. The number of transitions made by the mouse across the beams as detected by the photocells was recorded automatically over a period of 5 minutes. The level of locomotor activity was scored by the number beam-crossings made by the mouse. In the test, amphetamine sensitized mice were randomly separated into groups (m=12-20 per group). The Amp group of mice received 0.9 mg/kg amphetamine injection 10 minutes prior to testing. […]
Male ICR mice of 4 to 6 weeks were randomly separated into groups (n=15-20 per group). […] Locomotor activity was measured based on crossings of infrared beams. […] Myorelaxant activity was measured using the horizontal wire test. […] For each mouse, the number of falls in 60 seconds was recorded.

Male ICR mice [5] = experiment: Horizontal wire test (myorelaxant effect); format: in vivo
Method: Male ICR mice of 4 to 6 weeks were randomly separated into groups (n=15-20 per group). Vehicle (0.9% NaCl), 0.01-2.5 mg/kg dl-THP or l-THP, and 1 and 3 mg/kg diazepam were orally administered 45 minutes prior to test. Locomotor activity was measured based on crossings of infrared beams. […] Myorelaxant activity was measured using the horizontal wire test. In this test, mouse was lifted by the tail and allowed to grasp onto a horizontally strung wire (1 mm diameter, 20 cm long and placed 20 cm above the table) with their forepaws and released. For each mouse, the number of falls in 60 seconds was recorded.

rats [6] = details: 10, 20 and 40 mg/kg i.p., mediated by D2 receptors; cited from earlier work
[7] = tested on: amphetamine sensitized mice; experiment: Test for antimanic-like behavior: locomotor activity of amphetamine sensitized mice; format: in vivo; details: 0.9 mg/kg amphetamine 10 minutes prior
Method: Manic-like behavior was induced accomplished using the method of Pathak et al. (2015). Male ICR mice of 6 to 7 week were given daily injection of 1.8 mg/kg d-amphetamine (amphetamine-sensitized mice) or vehicle (0.9% NaCl vehicle treated, viz. mice unsensitized by amphetamine) for 5 days. Amphetamine was then withdrawn for 7 days. The locomotor activity test ‘ZIL-2’ apparatus (Beijing Institute of Materia Medica) employed consisted of a transparent plastic cylinder of 20 cm diameter×12 cm height equipped with six evenly spaced sets of infrared beam-photocell. The number of transitions made by the mouse across the beams as detected by the photocells was recorded automatically over a period of 5 minutes. The level of locomotor activity was scored by the number beam-crossings made by the mouse. In the test, amphetamine sensitized mice were randomly separated into groups (m=12-20 per group). The Amp group of mice received 0.9 mg/kg amphetamine injection 10 minutes prior to testing. The l-THP groups received oral l-THP (0.05, 0.1 and 0.2 mg/kg) 30 minutes prior to testing, and 0.9 mg/kg amphetamine injection 10 minutes prior to testing. The Veh mice received vehicle orally 30 minutes prior to testing and vehicle injection 10 minutes prior to testing.

female ICR mice = experiment: Crawley's sociability and preference for social novelty test (three-chamber box); format: in vivo; details: 45 minutes prior
Method: In Crawley's test, female ICR mice of 8 to 10 weeks were randomized into groups (n=12-20/group), and orally administered 45 minutes prior to testing with vehicle (0.9% NaCl), 0.1 mg/kg l-THP or 0.5 mg/kg l-THP. The test apparatus comprised a rectangular, three-chamber box. Each chamber was 19×45 cm, and the dividing walls between chambers were made of clear Plexiglas. The central chamber was connected to each side chamber with a removable wall. Two identical wire cylindrical containers with removable lids that were large enough to hold a single mouse each were placed vertically inside the apparatus, one in the middle of each side chamber. Each of these containers consisted of a cup made of metal wires to allow for air exchange between the interior and exterior of the cylinder but small enough to prevent direct physical interactions between an animal on the inside with one on the outside, and a removable lid. In the beginning of the test, the two cylindrical containers in the two side chambers were empty, and the subject mouse was placed at the center of the middle chamber for adaptation. After 5 minutes, one social-object mouse (stranger-1) was placed inside the cylinder in one of the side chambers. The placement of strange-1 was systematically changed between the two side chambers between trials. Then the walls separating the middle chamber from the two side chambers were removed to allow the subject mouse free access to all three chambers. In a first 10-minute session, the duration and number of direct contacts between the subject mouse and the container cup housing or not housing the stranger-1 mouse were recorded individually. At the end of this session, a second social-object mouse (stranger-2) was placed in the wire container cup that was empty during the first 10-minute session. Then the duration and number of direct contacts between the subject mouse and the two container cups holding stranger-1 mouse and stranger-2 mouse were recorded separately during a second 10-minute session. The first 10-minute session provided an estimate of the sociability of the subject mouse in terms of its preference if any to spend more time with the container holding the stranger-1 mouse compared to the empty container. The second 10-minute session provided an estimate of the preference of the subject mouse for social novelty in terms of its preference if any to associate with the container holding the novel stranger-2 mouse compared to the container holding the more familiar stranger-1 mouse (Moy et al 2004; Kaidanovich-Beilin et al., 2011).

rats [8] = details: cited from earlier work
rats [9] = details: PTSD rats, cited from earlier work
mice [10] = details: 6.25, 12.5, and 18.75 mg/kg i.g.; cited from earlier work
rats [11] = details: PTSD rats, cited from earlier work; remark: listed apart in the source

Compound: COc1cc2c(cc1OC)[C@@H]1Cc3ccc(OC)c(OC)c3CN1CC2 (racemic) [dl-THP, dl-tetrahydropalmatine]
- influence of flumazenil on antidepressant effect (immobility time) (Male ICR mice [1]): inhibition of the antidepressant effects
- lowest oral dose eliciting antidepressant effect based on immobility time (Male ICR mice [1]): ≥ 2.0 mg/kg
- oral dose that significantly shortens immobility time (antidepressant effect) (Male ICR mice [1]): 2.0 to 5.0 mg/kg
- time spent in the open arms (anxiolytic effect) (Male ICR mice [2]; 1.0 mg/kg oral): significant increase in time spent in the open arms
- time spent in the open arms (anxiolytic effect) (Male ICR mice [2]; 2.0 mg/kg oral): significant increase in time spent in the open arms
- lowest oral dose active for anxiolysis (Male ICR mice [2]): ≥ 1.0 mg/kg
- anxiolytic effects: entries into open arms without significant change in entries into closed arms (mice [3]): selective anxiolytic effects

Compound: CN1C(=O)CN=C(c2ccccc2)c2cc(Cl)ccc21 [Diazepam]
- anxiolysis (time spent in open arms) (Male ICR mice [2]; diazepam 1 mg/kg): significant anxiolysis
- anxiolysis (time spent in open arms) (Male ICR mice [2]; diazepam 3 mg/kg): significant anxiolysis
- locomotor activity (crossings of infrared beams) (Male ICR mice [4]): significant decrease
- myorelaxant effect (number of falls in 60 seconds) (Male ICR mice [5]; 3 mg/kg): significant (p<0.05) myorelaxant effect

Compound: CN(C)CCCN1c2ccccc2CCc2ccccc21 [Imipramine]
- oral dose that significantly shortens immobility time (antidepressant effect) (Male ICR mice [1]): 30 mg/kg

Compound: COc1cc2c(cc1OC)[C@@H]1Cc3ccc(OC)c(OC)c3CN1CC2 [l-THP, levorotatory tetrahydropalmatine]
- antinociceptive effects (rats [6]): dose-dependent antinociceptive effects
- influence of flumazenil on antidepressant effect (immobility time) (Male ICR mice [1]): inhibition of the antidepressant effects
- lowest oral dose eliciting antidepressant effect based on immobility time (Male ICR mice [1]): ≥ 0.5 mg/kg
- oral dose that significantly shortens immobility time (antidepressant effect) (Male ICR mice [1]): 0.5 to 5.0 mg/kg
- time spent in the open arms (anxiolytic effect) (Male ICR mice [2]; 0.1 mg/kg oral): significant increase in time spent in the open arms
- time spent in the open arms (anxiolytic effect) (Male ICR mice [2]; 0.5 mg/kg oral): significant increase in time spent in the open arms
- influence of flumazenil on anxiolytic effect (time spent in open arms) (Male ICR mice [2]; 1.0 mg/kg p.o. 45 minutes prior plus flumazenil 1.25 mg/kg i.p. 15 minutes prior): inhibition of the anxiolytic effect
- time spent in the open arms (anxiolytic effect) (Male ICR mice [2]; 2.5 mg/kg oral): significant increase in time spent in the open arms
- lowest oral dose active for anxiolysis (Male ICR mice [2]): ≥ 0.1 mg/kg
- level of locomotor activity relative to Amp mice (antimanic effect) ([7]; 0.05 mg/kg oral 30 minutes prior): significantly reduced the level locomotor activity
- level of locomotor activity relative to Amp mice (antimanic effect) ([7]; 0.1 mg/kg oral 30 minutes prior): significantly reduced the level locomotor activity
- level of locomotor activity relative to Amp mice (antimanic effect) ([7]; 0.2 mg/kg oral 30 minutes prior): significantly reduced the level locomotor activity
- preference for social novelty: stranger-2 vs familiar stranger-1 mouse (female ICR mice; 0.1 mg/kg oral, p<0.001): showed preference for the novel stranger-2 mouse
- sociability: time with stranger-1 mouse container vs empty container (female ICR mice; 0.1 mg/kg oral, p<0.001): significant enhancement of sociability
- preference for social novelty: stranger-2 vs familiar stranger-1 mouse (female ICR mice; 0.5 mg/kg oral, p<0.01): showed preference for the novel stranger-2 mouse
- sociability: time with stranger-1 mouse container vs empty container (female ICR mice; 0.5 mg/kg oral, p<0.01): significant enhancement of sociability
- locomotion (rats [8]; 3 mg/kg i.p.): failed to do so
- locomotion (rats [8]; 10 mg/kg i.p.): inhibited locomotion
- anxiolytic effect based on the elevated plus-maze test (rats [9]; daily 50 mg/kg i.p.): significant anxiolytic effect
- anxiolytic effect based on the elevated plus-maze test (rats [9]; daily 10 or 20 mg/kg i.p.): not
- locomotor activity (mice [10]): did not affect locomotor activity
- myorelaxant effect (number of falls in 60 seconds) (Male ICR mice [5]; male, ICR, mouse, in vivo, 45 min): significant (p<0.01) myorelaxant effect
- myorelaxant effect (number of falls in 60 seconds) (Male ICR mice [5]; mouse, in vivo): did not induce any significant myorelaxant effect
- antidepressant effect based on sucrose intake or immobility time in the forced swimming test (rats [11]; daily 50 mg/kg i.p.): significant antidepressant effect
- antidepressant effect based on sucrose intake or immobility time in the forced swimming test (rats [11]; daily 10 or 20 mg/kg i.p.): not

— patent US20200022970A1, “APPLICATION OF LEVOROTATORY TETRAHYDROPALMATINE TO THE TREATMENT OF DEPRESSION DISORDERS, BIPOLAR AND RELATED DISORDERS, MANIC EPISODES AND ANXIETY DISORDERS” (priority 2018, published 2020)
